Drawing on ChEMBL document CHEMBL1944613, “Cloning, characterization and sulfonamide inhibition studies of an α-carbonic anhydrase from the living fossil sponge Astrosclera willeyana” (Bioorg Med Chem, 2012), this text covers Ki for 25 compounds.

For this test, the target named is T1, Astrosclerin-3 (Astrosclera willeyana, UniProt A6YCJ1).
T1 sequence (A6YCJ1 whole entry): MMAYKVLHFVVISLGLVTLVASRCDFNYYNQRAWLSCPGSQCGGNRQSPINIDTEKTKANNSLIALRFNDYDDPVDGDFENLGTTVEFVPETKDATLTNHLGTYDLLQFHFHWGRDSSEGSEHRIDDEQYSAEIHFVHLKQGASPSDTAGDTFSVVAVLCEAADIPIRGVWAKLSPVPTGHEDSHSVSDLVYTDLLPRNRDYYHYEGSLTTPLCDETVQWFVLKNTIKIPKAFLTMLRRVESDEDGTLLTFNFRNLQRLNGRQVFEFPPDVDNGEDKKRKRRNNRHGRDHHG

SMILES strings stand for the structures.

Description: Inhibition of GST-tagged astrosclera willeyana Astrosclerin-3 expressed in Escherichia coli after 15 mins preincubation by stopped flow CO2 hydration assay

`Nc1ccc(S(N)(=O)=O)cc1` [SULFANILAMIDE] yielded a Ki of 7700 nM.

Take `NNc1ccccc1S(N)(=O)=O`: the affinity corresponds to a Ki of 8850 nM. Then `NS(=O)(=O)c1ccc(S(=O)(=O)Nc2cccc3c(Cl)c[nH]c23)cc1`, with 423 nM; and `NS(=O)(=O)c1ccc(CO)cc1`, with 4260 nM. Then `CCN[C@H]1CN(CCCOC)S(=O)(=O)c2sc(S(N)(=O)=O)cc21` [BRINZOLAMIDE], with 278 nM; and `Nc1c(F)cc(S(=O)(=O)Nc2nnc(S(N)(=O)=O)s2)cc1Cl`, with 2.8 nM. For `Cn1nc(S(N)(=O)=O)sc1=N` the value was 393 nM.

Turning to `Nc1c(I)cc(S(N)(=O)=O)cc1I`, the affinity corresponds to a Ki of 879 nM. For `NS(=O)(=O)c1nnc(NS(=O)(=O)c2ccccc2)s1` [BENZOLAMIDE] the value was 32 nM.

As for `NCc1ccc(S(N)(=O)=O)cc1` [MAFENIDE], the affinity corresponds to a Ki of 973 nM.

`Cc1ccc(-c2cc(C(F)(F)F)nn2-c2ccc(S(N)(=O)=O)cc2)cc1` [CELECOXIB] came in with an inhibition constant Ki of 732 nM. For `NS(=O)(=O)c1ccc(CCNC(=O)c2ccc(S(N)(=O)=O)cc2)cc1` the value was 34 nM; for `Nc1ccc(S(=O)(=O)Nc2nnc(S(N)(=O)=O)s2)cc1`, 3.9 nM.

Consider `NNc1ccc(S(N)(=O)=O)cc1`, for which the Ki turned out to be 6080 nM. For `Nc1nccc(Nc2ccc(S(N)(=O)=O)cc2)n1` the value was 54 nM; for `Cc1ccc(S(N)(=O)=O)cc1` [P-TOLUENESULFONAMIDE], 675 nM.

With `Nc1ccc(S(N)(=O)=O)cc1Cl`, the Ki turned out to be 884 nM. Then `CC1(C)O[C@@H]2[C@@H](CO[C@@]3(COS(N)(=O)=O)OC(C)(C)O[C@@H]23)O1` [TOPIRAMATE], with 38 nM. The compound `Nc1c(Br)cc(S(N)(=O)=O)cc1Br` registered a Ki of 965 nM.

The compound `NCCc1ccc(S(N)(=O)=O)cc1` returned a Ki of 715 nM.

In turn, `NS(=O)(=O)c1ccc(CCO)cc1` had a Ki of 1380 nM. Then `Nc1ccc(S(=O)(=O)NCCc2ccc(S(N)(=O)=O)cc2)cc1`, with 16 nM; and `NS(=O)(=O)c1ccc(C(=O)O)cc1` [CARZENIDE], with 1210 nM. For `O=C1NS(=O)(=O)c2ccccc21` [SACCHARIN] the value was 751 nM. In turn, `Nc1ccc(S(N)(=O)=O)cc1F` showed an inhibition constant (Ki) of 890 nM.
